Consider seven compounds from ChEMBL document CHEMBL1122628, “Nonsteroidal antiinflammatory agents. 14. Synthesis and pharmacological profile of 6-chloro-5-(cyclopentylmethyl)indan-1-carboxylic acid” (J Med Chem, 1984).

In general, ED50 refers to the midpoint of the dose-response relation. Low readings indicate greater potency, high ones weaker potency.

The species named for data set [1] is Rattus norvegicus. Put plainly: Gastrointestinal tolerability was evaluated under acute conditions, in rats. The ulcerogenic dose was reported. Format: functional.
Data set [2] relates to Rattus norvegicus. The data set is described as follows: Antiinflammatory activity was evaluated in an carrageenan edema (acute inflammation) test, after administering compound orally in rats. Format: functional. As to conditions: po. On the technique in general: Carrageenan injected into the paw causes an acute inflammation.
Data set [3] concerns Rattus norvegicus. Put plainly: Antiinflammatory activity was evaluated in an adjuvant arthritis (subchronic inflammation) test after administering compound orally in rats. The settings on record: po. Format: functional.
The species entered for data set [4] is Rattus norvegicus. The data set is described as follows: Gastrointestinal tolerability was evaluated under chronic conditions, in rats. The ulcerogenic dose was reported. Format: functional.
For data set [5], the species on record is Rattus norvegicus. Put plainly: Gastrointestinal tolerability was evaluated in rats and amount blood loss was reported. Format: functional.
Data set [6] is filed under the species Rattus norvegicus. Put plainly: Gastrointestinal tolerability was evaluated in rats and compound dose that causes lethality was reported. Format: toxicity, organism-based. The settings on record: in vivo.
The subject of data set [7] is Rattus norvegicus. Put plainly: Antiinflammatory activity was evaluated in an adjuvant arthritis (subchronic inflammation) test, after administering compound orally in rats. Format: functional. The settings on record: po.
The test system of data set [8] is Rattus norvegicus. The data set is described as follows: Antiinflammatory activity was evaluated in an carrageenan edema (acute inflammation) test, after administering compound orally in rats. Format: functional. As to conditions: po.
The species named for data set [9] is Rattus norvegicus. Put plainly: Gastrointestinal tolerability was evaluated in rats and amount blood loss was reported. In kind it is functional.
The test system of data set [10] is Rattus norvegicus. Put plainly: Antiinflammatory activity was evaluated in an carrageenan edema (acute inflammation) test, after administering compound orally in rats; 50-100. In kind it is functional. The settings on record: po.
Data set [11] has as its system Rattus norvegicus. The data set is described as follows: Antiinflammatory activity was evaluated in an adjuvant arthritis (subchronic inflammation) test after administering compound orally in rats. In kind it is functional. The settings on record: po.
The species named for data set [12] is Rattus norvegicus. The data set is described as follows: Gastrointestinal tolerability was evaluated under acute conditions, in rats. The ulcerogenic dose was reported. In kind it is functional.
For data set [13], the species on record is Rattus norvegicus. The data set is described as follows: Gastrointestinal tolerability was evaluated under chronic conditions, in rats. The ulcerogenic dose was reported; 30-100. In kind it is functional.
For data set [14], the species on record is Rattus norvegicus. Put plainly: Gastrointestinal tolerability was evaluated in rats and compound dose that causes lethality was reported. In kind it is toxicity, organism-based. As to conditions: in vivo.
The species entered for data set [15] is Rattus norvegicus. The data set is described as follows: Gastrointestinal tolerability was evaluated under chronic conditions, in rats. The ulcerogenic dose was reported. Format: functional.
For data set [16], the species on record is Rattus norvegicus. Put plainly: Gastrointestinal tolerability was evaluated under chronic conditions, in rats. The ulcerogenic dose from a 4-week toxicity study, was reported. In kind it is functional.
For data set [17], the system named is Rattus norvegicus. The data set is described as follows: Antiinflammatory activity was evaluated in an carrageenan edema (acute inflammation) test, after administering compound orally in rats; 15-30. In kind it is functional. The settings on record: po.

Some results are limits rather than exact numbers.

With `O=C(O)Cc1ccccc1Nc1c(Cl)cccc1Cl` [DICLOFENAC], the UD in the data set filed under Rattus norvegicus [1] and in the data set listed under Rattus norvegicus [4] was 20 mg/kg throughout. The same compound displayed an ED50 with Rattus norvegicus [2] of 2 mg/kg. The ED40 with Rattus norvegicus [3] turned out to be 2 mg/kg. This compound also registered a Blood loss in the data set filed under Rattus norvegicus [5] of 20 mg/kg.

`COc1ccc2cc([C@H](C)C(=O)O)ccc2c1` [NAPROXEN]: in the data set filed under Rattus norvegicus [1], the UD was determined as 5 mg/kg. The compound further gave a Lethality in the data set filed under Rattus norvegicus [6] greater than 30 mg/kg. Besides, the ED40 in the data set with Rattus norvegicus [7] stood at 10 mg/kg. The same compound showed an ED50 in the data set with Rattus norvegicus [8] of 15 mg/kg. For the same compound, the Blood loss in the data set listed under Rattus norvegicus [9] is greater than 30 mg/kg.

As for `CC(C)Cc1ccc(C(C)C(=O)O)cc1` (configuration not stated) [IBUPROFEN], it took a dose of 50 mg/kg to reach the 50% effect level with Rattus norvegicus [10] (ED50). Further, the ED40 in the data set on Rattus norvegicus [11] is greater than 150 mg/kg. Moreover, the UD in the data set filed under Rattus norvegicus [12] and in the data set listed under Rattus norvegicus [13] was 30 mg/kg each time. In the data set filed under Rattus norvegicus [5], this compound showed a Blood loss of 200 mg/kg. The Lethality in the data set listed under Rattus norvegicus [14] came to 400 mg/kg.

In the case of `COc1ccc2c(c1)c(CC(=O)O)c(C)n2C(=O)c1ccc(Cl)cc1` [INDOMETHACIN], the UD in the data set filed under Rattus norvegicus [1] and in the data set listed under Rattus norvegicus [15] was 4 mg/kg each time. This compound also showed a Lethality in the data set filed under Rattus norvegicus [6] of 8 mg/kg. In addition, the ED40 in the data set with Rattus norvegicus [7] was 2 mg/kg. This compound came in with an ED50 with Rattus norvegicus [8] of 4 mg/kg. For the same compound, the Blood loss in the data set filed under Rattus norvegicus [9] was found to be 4 mg/kg.

In turn, `O=C(O)C1CCc2cc(C3CCCCC3)c(Cl)cc21` (configuration not stated) [CLIDANAC] returned a UD in the data set filed under Rattus norvegicus [1] of less than 3 mg/kg. Also, the ED40 in the data set with Rattus norvegicus [7] stood at 4 mg/kg. For the same compound, in the data set on Rattus norvegicus [8], the ED50 was found to be 4 mg/kg.

`O=C(O)C1CCc2cc(CC3CCCC3)c(Cl)cc21` (configuration not stated): the results for the UD in the data set listed under Rattus norvegicus [16], in the data set filed under Rattus norvegicus [1] and in the data set listed under Rattus norvegicus [15] were greater than 400 mg/kg, greater than 400 mg/kg and greater than 100 mg/kg, respectively. The ED40 in the data set with Rattus norvegicus [7] was determined as 30 mg/kg. Further, the ED50 in the data set with Rattus norvegicus [8] was determined as 30 mg/kg. In the data set listed under Rattus norvegicus [9], this compound came in with a Blood loss greater than 100 mg/kg.

In the case of `CC(C(=O)O)c1ccc2oc(-c3ccc(Cl)cc3)nc2c1` (configuration not stated) [BENOXAPROFEN], the UD in the data set listed under Rattus norvegicus [4] was less than 30 mg/kg; in the data set listed under Rattus norvegicus [12], greater than 200 mg/kg. In addition, the ED40 in the data set with Rattus norvegicus [11] came to 10 mg/kg. The compound further showed an ED50 with Rattus norvegicus [17] of 15 mg/kg. In the data set filed under Rattus norvegicus [5], this compound yielded a Blood loss of less than 50 mg/kg. Besides, in the data set listed under Rattus norvegicus [14], the Lethality is less than 50 mg/kg.
